Like-named read-outs stand apart in the source and are kept apart here.

These results are taken from patent publication US11365199B2, “Pyrazole compounds as modulators of FSHR and uses thereof” (Merck Patent GmbH, priority 2013, dated 2022).

The target in one test is T1, FSHR (Homo sapiens, UniProt P23945).
T1 construct: expressed in transfected cells; host or cells: CHO (Cho-FSHR-LUC-1-1-43)
T1 sequence (P23945 18-695): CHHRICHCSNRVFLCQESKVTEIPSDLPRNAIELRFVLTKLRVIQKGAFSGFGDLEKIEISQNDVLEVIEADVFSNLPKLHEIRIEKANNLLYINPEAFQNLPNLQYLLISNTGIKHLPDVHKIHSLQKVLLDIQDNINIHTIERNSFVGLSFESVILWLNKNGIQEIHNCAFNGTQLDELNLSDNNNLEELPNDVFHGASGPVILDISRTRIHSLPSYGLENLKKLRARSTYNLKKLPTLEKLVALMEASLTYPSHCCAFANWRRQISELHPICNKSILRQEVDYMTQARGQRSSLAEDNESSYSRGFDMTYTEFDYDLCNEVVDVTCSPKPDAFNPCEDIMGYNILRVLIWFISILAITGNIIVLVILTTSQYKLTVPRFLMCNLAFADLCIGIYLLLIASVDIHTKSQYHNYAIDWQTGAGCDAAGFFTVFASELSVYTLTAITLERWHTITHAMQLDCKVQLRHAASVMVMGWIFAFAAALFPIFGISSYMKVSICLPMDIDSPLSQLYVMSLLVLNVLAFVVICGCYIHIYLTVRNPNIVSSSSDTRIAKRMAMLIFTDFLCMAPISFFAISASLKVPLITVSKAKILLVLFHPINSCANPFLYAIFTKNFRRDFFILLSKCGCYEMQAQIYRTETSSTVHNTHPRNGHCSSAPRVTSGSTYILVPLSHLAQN
Description: EC50 of cyclic AMP production in CHO FSHR cells + EC20 FSH (Assay A). The test is classed as cell-based. Put shortly:
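cAMP HTRF read-out (665 nm/620 nm ratio) after 1 h at 37° C of Cho-FSHR-LUC cells treated with serially diluted test compound plus EC20 FSH ([…]) and IBMX (final 200 μM). Responses given as percent of maximal FSH-standard effect.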

For test [1], the target named is T2, follicle-stimulating hormone (FSH) receptor (Rattus norvegicus, UniProt P20395).
T2 construct: endogenous in cells; host or cells: primary rat granulosa cells
T2 sequence (P20395 18-692): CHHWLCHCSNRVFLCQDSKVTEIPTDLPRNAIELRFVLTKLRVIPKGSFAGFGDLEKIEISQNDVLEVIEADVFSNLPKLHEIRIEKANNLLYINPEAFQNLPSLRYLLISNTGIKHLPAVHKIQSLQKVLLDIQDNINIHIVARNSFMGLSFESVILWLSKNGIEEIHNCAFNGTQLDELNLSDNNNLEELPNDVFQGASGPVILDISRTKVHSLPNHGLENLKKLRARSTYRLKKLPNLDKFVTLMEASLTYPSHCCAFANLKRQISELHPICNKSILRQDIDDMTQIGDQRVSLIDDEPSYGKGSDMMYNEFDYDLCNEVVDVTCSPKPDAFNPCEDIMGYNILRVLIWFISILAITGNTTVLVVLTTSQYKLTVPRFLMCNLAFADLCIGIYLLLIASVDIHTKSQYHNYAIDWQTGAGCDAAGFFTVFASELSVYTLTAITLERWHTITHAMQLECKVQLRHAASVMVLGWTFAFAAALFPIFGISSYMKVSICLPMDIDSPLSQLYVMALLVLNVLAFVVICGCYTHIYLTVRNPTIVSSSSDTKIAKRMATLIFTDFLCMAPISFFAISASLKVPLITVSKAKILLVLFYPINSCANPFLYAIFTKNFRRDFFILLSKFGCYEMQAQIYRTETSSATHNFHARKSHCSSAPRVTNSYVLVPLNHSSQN
Description: Rat granulosa EC50 FSH (Assay B). The test is classed as cell-based. As to conditions: for EC50: rat granulosa cells, read-out: Assay B: Rat granulosa EC50 FSH. As for the experimental part:
Rat Granulosa EC50 FSH (Assay B)
The assay was performed pursuant to the teaching of Yanofsky et al. (2006) Allosteric activation of the follicle-stimulating hormone (FSH) receptor by selective, nonpeptide agonists (JBC 281(19): 13226-13233, which is incorporated by reference in the disclosure of the invention).

The mark [2] stands for this setting: CHO FSHR cells + EC20 FSH, cAMP HTRF, read-out: Assay A: EC50 of cyclic AMP production.

One may read the EC50 as the concentration that produces a half-maximal response. In the case of `COc1cc2c(cc1C(N)=O)-c1c(c(C(=O)N(C)C(C)(C)C)nn1-c1ccsc1)CO2` [Compound 50, 7-Methoxy-1-thiophen-3-yl-1,4-dihydro-chromeno[4,3-c]pyrazole-3,8-dicarboxylic Acid 8-amide 3-(tert-butyl-methyl-amide)], the EC50 was under 100 nM on FSHR (setting [2]) and 100 to 1000 nM in test [1].

Turning to `COc1cc2c(cc1-c1cn[nH]c1)-c1c(c(C(=O)N(C)C(C)(C)C)nn1-c1ccsc1)CO2` [Compound 1, 7-Methoxy-8-(1H-pyrazol-4-yl)-1-thiophen-3-yl-1,4-dihydro-chromeno[4,3-c]pyrazole-3-carboxylic Acid tert-butyl-methyl-amide], the EC50 (at FSHR (setting [2]); in test [1]) was under 100 nM in each case.

For the molecule `COc1cc2c(cc1-c1c(C)nn(C)c1C)-c1c(c(C(=O)N3CCOCC3(C)C)nn1-c1ccsc1)CO2` [Compound 121, (3,3-Dimethyl-morpholin-4-yl)-[7-methoxy-1-thiophen-3-yl-8-(1,3,5-trimethyl-1H-pyrazol-4-yl)-1,4-dihydro-chromeno[4,3-c]pyrazol-3-yl]-methanone], the values for the EC50 (at FSHR (setting [2]); in test [1]) were under 100 nM and over 5000 nM, respectively.

`COc1cc2c(cc1SC(C)C)-c1c(c(C(=O)N(C)C(C)(C)C)nn1-c1ccsc1)CO2` [Compound 52, 8-isopropylsulfanyl-7-methoxy-1-thiophen-3-yl-1,4-dihydro-chromeno[4,3-c]pyrazole-3-carboxylic Acid tert-butyl-methyl-amide]: the results for the EC50 (at FSHR (setting [2]); in test [1]) were under 100 nM and 100 to 1000 nM, respectively.

Turning to `COc1cc2c(cc1-c1ccn(C)n1)-c1c(c(C(=O)N3CCNCC3(C)C)nn1-c1ccsc1)CO2` [Compound 169, (2,2-Dimethyl-piperazin-1-yl)-[7-methoxy-8-(1-methyl-1H-pyrazol-3-yl)-1-thiophen-3-yl-1,4-dihydro-chromeno[4,3-c]pyrazol-3-yl]-methanone], the EC50 at FSHR (setting [2]) was under 100 nM; in test [1], 100 to 1000 nM.

For `COc1cc2c(cc1-c1nc[nH]n1)-c1c(c(C(=O)N3CCOCC3(C)C)nn1-c1ccsc1)CO2` [Compound 161, (3,3-Dimethyl-morpholin-4-yl)-[7-methoxy-1-thiophen-3-yl-8-(5H-[1,2,4]triazol-3-yl)-1,4-dihydro-chromeno[4,3-c]pyrazol-3-yl]-methanone], the EC50 (at FSHR (setting [2]); in test [1]) was under 100 nM throughout.

Consider `COc1cc2c(cc1OC(C)C)-c1c(c(C(=O)NCCCNC(=O)C3CCC3)nn1-c1ccsc1)CO2` [Compound 28, 8-Isopropoxy-7-methoxy-1-thiophen-3-yl-1,4-dihydro-chromeno[4,3-c]pyrazole-3-carboxylic Acid [3-(cyclobutanecarbonyl-amino)-propyl]-amide], for which the EC50 (at FSHR (setting [2]); in test [1]) was over 5000 nM throughout.

As to `[2H]C([2H])([2H])OCC1(N(C(=O)c2nn(-c3ccsc3)c3c2COc2cc(OC)c(CC(C)C)cc2-3)C([2H])([2H])[2H])COC1` [Compound 162], the EC50 on FSHR (setting [2]) was under 100 nM; in test [1], 100 to 1000 nM.

As for `COc1cc2c(cc1-c1cccnc1)-c1c(c(C(=O)N(C)C(C)(C)C)nn1-c1ccsc1)CO2` [Compound 2, 7-Methoxy-8-pyridin-3-yl-1-thiophen-3-yl-1,4-dihydro-chromeno[4,3-c]pyrazole-3-carboxylic Acid tert-butyl-methyl-amide], the EC50 on FSHR (setting [2]) is under 100 nM. Further, the Emax at 30 µM in test [1] (read-out: Assay B: percental effect (response) relative to the maximum response of the FSH standard) worked out at 54%.

Consider `COc1cc2c(cc1CC(C)C)-c1c(c(C(=O)N(C)C(C)(C)C)nn1-c1ccsc1)CO2` [Compound 5, 8-Isobutyl-7-methoxy-1-thiophen-3-yl-1,4-dihydro-chromeno[4,3-c]pyrazole-3-carboxylic Acid tert-butyl-methyl-amide], for which the values for the EC50 (at FSHR (setting [2]); in test [1]) were under 100 nM and 1000 to 5000 nM, respectively.

Take `[2H]C([2H])([2H])OC1(CN(C(=O)c2nn(-c3ccsc3)c3c2COc2cc(OC)c(-c4ccn(C)n4)cc2-3)C([2H])([2H])[2H])COC1` [Compound 167]: the EC50 (at FSHR (setting [2]); in test [1]) was 100 to 1000 nM each time.

`COc1cc2c(cc1SCC(C)C)-c1c(c(C(=O)N3CCOCC3(C)C)nn1-c1ccsc1)CO2` [Compound 97, (3,3-Dimethyl-morpholin-4-yl)-(8-isobutylsulfanyl-7-methoxy-1-thiophen-3-yl-1,4-dihydro-chromeno[4,3-c]pyrazol-3-yl)-methanone]: the EC50 (at FSHR (setting [2]); in test [1]) was 100 to 1000 nM each time.

As to `COc1cc2c(cc1C=C(C)C)-c1c(c(C(=O)N(C)C(C)(C)C)nn1-c1ccsc1)CO2` [Compound 6, 7-Methoxy-8-(2-methyl-propenyl)-1-thiophen-3-yl-1,4-dihydro-chromeno[4,3-c]pyrazole-3-carboxylic Acid tert-butyl-methyl-amide], the EC50 is under 100 nM on FSHR (setting [2]) and 1000 to 5000 nM in test [1].

As to `COc1cc2c(cc1-c1ccnn1C)-c1c(c(C(=O)NC3(CO)COC3)nn1-c1ccsc1)CO2` [Compound 111, 7-Methoxy-8-(2-methyl-2H-pyrazol-3-yl)-1-thiophen-3-yl-1,4-dihydro-chromeno[4,3-c]pyrazole-3-carboxylic acid (3-hydroxymethyl-oxetan-3-yl)-amide], the EC50 at FSHR (setting [2]) was in the range of 100 to 1000 nM.

Turning to `COc1cc2c(cc1C=C(C)C)-c1c(c(C(=O)N3CCC[C@H](C(=O)N4CCC4)CC3)nn1-c1ccsc1)CO2` [Compound 46, [(S)-4-(Azetidine-1-carbonyl)-azepan-1-yl]-[7-methoxy-8-(2-methyl-propenyl)-1-thiophen-3-yl-1,4-dihydro-chromeno[4,3-c]pyrazol-3-yl]-methanone], on FSHR (setting [2]), the EC50 is 1000 to 5000 nM.

With `COc1cc2c(cc1-c1ccn(C)c1)-c1c(c(C(=O)NC(C)(CO)CO)nn1-c1ccsc1)CO2` [Compound 179, 7-methoxy-8-(1-methyl-1H-pyrrol-3-yl)-1-thiophen-3-yl-1,4-dihydro-chromeno[4,3-c]pyrazole-3-carboxylic acid (2-hydroxy-1-hydroxymethyl-1-methyl-ethyl)-amide], the EC50 at FSHR (setting [2]) lay in the range of 100 to 1000 nM.

As for `COc1cc2c(cc1-c1cnn(CCN(C)C)c1)-c1c(c(C(=O)N3CCOCC3(C)C)nn1-c1ccsc1)CO2` [Compound 203, {8-[1-(2-Dimethylamino-ethyl)-1H-pyrazol-4-yl]-7-methoxy-1-thiophen-3-yl-1,4-dihydro-chromeno[4,3-c]pyrazol-3-yl}-(3,3-dimethyl-morpholin-4-yl)-methanone], the EC50 at FSHR (setting [2]) is 100 to 1000 nM.

Take `[2H]C([2H])([2H])OCC(C)(C)N(C(=O)c1nn(-c2ccsc2)c2c1COc1cc(OC)c(C=C(C)C)cc1-2)C([2H])([2H])[2H]` [Compound 58]: the EC50 on FSHR is under 100 nM.

On to `COc1cc2c(cc1-c1ccn(C)c1)-c1c(c(C(=O)N(C)C(C)(C)C)nn1-c1ccsc1)CO2` [Compound 55, 7-Methoxy-8-(1-methyl-1H-pyrrol-3-yl)-1-thiophen-3-yl-1,4-dihydro-chromeno[4,3-c]pyrazole-3-carboxylic acid tert-butyl-methyl-amide], for which, on FSHR (setting [2]), the concentration giving a half-maximal response (EC50) is under 100 nM.

In the case of `COc1cc2c(cc1C=C(C)C)-c1c(c(C(=O)N(C)CCCN3CCOC3=O)nn1-c1ccsc1)CO2` [Compound 33], the EC50 on FSHR (setting [2]) is 100 to 1000 nM.

With `CCOC(=O)C1CCN(C(=O)c2nn(-c3ccsc3)c3c2COc2cc(OC)c(C=C(C)C)cc2-3)CC1` [Compound 14, 1-{7-Methoxy-8-(2-methyl-propenyl)-1-thiophen-3-yl-1,4-dihydro-chromeno[4,3-c]pyrazole-3-carbonyl]-piperidine-4-carboxylic acid ethyl ester], the EC50 at FSHR (setting [2]) lay in the range of 1000 to 5000 nM.
